Values after ≈ are worked out from the molar mass of the structure shown. Like-named read-outs stand apart in the source and are kept apart here.
Assays:
[1] = tested on: E. coli (ATCC-25922); assay: Minimal inhibitory/bactericidal concentrations (MIC/MBC); format: cell-based, Escherichia coli
Description: (§1) The antimicrobial activity of newly synthesized benzyl thiazolium ionic liquids (BTILs) was investigated in vitro against the most common foodborne bacterial strains (Staphylococcus aureus (S. aureus, ATCC-25923) and Escherichia coli (E. coli, ATCC-25922)) in comparison with clinical drugs (Gentamycin (Gm) and Tetracyclin (TC)). These tests have been conducted in accordance with the standard antimicrobial assessment protocols we've described and used in our previous studies.[29] The diameters of the zone of inhibition (ZOI, mm), values of minimum inhibitory concentration (MIC), and minimal bactericidal concentration (MBC) were used as markers for the antimicrobial efficacy of the tested compounds.
(§2) As evident in Table 2, the results of MIC and MBC are in general accordance with the Well diffusion assay. […] In the literature, quantitative information on the antimicrobial activity of short-chained and benzyl-functionalized ionic liquids is scarce. In this context, few studies have reported the antibacterial impact of 1-alkyl-3-methylimidazolium ionic liquids, bound to different anions, upon various pathogenic bacteria.

[2] = tested on: S. aureus (ATCC-25923); assay: as above; format: cell-based, Staphylococcus aureus; settings: for MBC ± SD / MIC ± SD: S. aureus
Description: as §1, §2

[3] = tested on: Staphylococcus aureus (S. aureus, ATCC-25923); assay: Well diffusion assay (zone of inhibition); format: cell-based
Description: The antimicrobial activity of newly synthesized benzyl thiazolium ionic liquids (BTILs) was investigated in vitro against the most common foodborne bacterial strains (Staphylococcus aureus (S. aureus, ATCC-25923) and Escherichia coli (E. coli, ATCC-25922)) in comparison with clinical drugs (Gentamycin (Gm) and Tetracyclin (TC)). […] The diameters of the zone of inhibition (ZOI, mm), values of minimum inhibitory concentration (MIC), and minimal bactericidal concentration (MBC) were used as markers for the antimicrobial efficacy of the tested compounds.
The antibacterial activities of novel TILs against S. aureus and E. coli were screened in vitro, as compared to clinical antibiotics (Gentamycin (Gm) and Tetracyclin (TC)). […] Gram-negative bacteria' outer membranes, which are composed of impermeable lipopolysaccharides (LPS), phospholipids, and lipoproteins, may act as a barrier to the entry of antimicrobial molecules, whereas Gram-positive bacteria's outer membranes have no LPS layer and are composed only of a thick peptidoglycan layer which can easily absorb and transfer such antimicrobials to the inner cell membrane.[43]

[4] = Thermal stability by TG/DTG; format: physicochemical; settings: taken from DTG curves
Protocol: The thermogravimetric (TG) curves of the room temperature thiazolium ionic liquids (RTTILs) (3a, 4a–c) (Fig. 1A) were employed for the investigation of their thermal stabilities. It is evident that they are thermally stable up to 270 °C and then undergo a sharp degradation phase in the temperature range of 270–350 °C. […] The first main decomposition phase (∼81% weight loss) starts at 323 °C, followed by a modest decomposition stage between 496 and 618 °C. […] The first thermal degradation step begins at 298 °C (∼52% weight loss) and is followed by two smaller degradation steps at 353 and 418 °C, respectively.

[5] = MTT cytotoxicity assay; format: cell-based, human; settings: human, normal human skin fibroblast (HSF) cells; 200 μM, 24 h
Protocol: (§3) The antiproliferative activity of novel BTILs was tested in vitro against two cell lines: ovarian cancer (SKOV-3) and normal human skin fibroblast cells (HSF) using the standard MTT cytotoxicity assay described in our previous work.[30] The cell viability ratios, half-maximal inhibitory concentration (IC50), and selectivity index (SI) were used as performance indices for the cytotoxicity of tested compounds. The clinical anticancer drug (cisplatin, CDDP) was used as a positive control.
(§4) To explore the selectivity of the newly synthesized TILs for attacking cancer cells over normal ones, the effects of serial concentrations (0–200 μM) of these TILs on the proliferation of normal human skin fibroblast (HSF) cells were also studied for a period of 24 h. […] For example, treatment of both cell lines with 100 μM of [^iPBzTh][Tf2N] […] [MBzTh][BF4]

[6] = tested on: normal human skin fibroblast cells (HSF); assay: MTT cytotoxicity assay; format: cell-based; settings: HSF, MTT, 24 h of treatment
Protocol: as §3, §4

[7] = Viscosity by capillary viscometer; format: physicochemical; settings: at 50 °C and concentrations 0.5 mg mL^−1, capillary viscometer
Description: Also, the viscosity of new benzyl thiazolium ionic liquids depends on the intrinsic structural features of the cation and anion. […] This behavior can be explained based on the fact that the extremely hydrophobic Tf2N^− anion, enriched with fluorine electrons, exerts higher ion–ion interactions with hydrophobic tert-butylbenzyl-methylthiazolium cation, resulting in an increase in viscosity.[35]

[8] = tested on: ovarian carcinoma cell lines (SKOV-3); assay: MTT cytotoxicity assay; format: cell-based, human; settings: for IC50: SKOV-3, MTT, 24 h of treatment; for Selectivity index (SI): cancer cells (SKOV-3) over normal ones (HSF)
Protocol: as §3
The use of ionic liquids (ILs) in pharmaceutical and medicinal chemistry has recently piqued the interest of researchers across the globe.[12] In this scenario, several studies have documented the anticancer potential of ILs.[20,48] In order to find potential safe anticancer candidates, the cytotoxicity of imidazolium, ammonium, pyridinium, and phosphonium ILs was tested against over 60 human cancer cell lines.[12,49] […] Besides, the cytotoxicity of ILs is strongly correlated to the counter anion. For instance, the cytotoxicity of 1-alkyl-3-methylimidazolium cation [RMIM]^+ follows the following trend; [RMIM][Tf2N] ≫ [RMIM][BF4] > [RMIM][Cl].[50] To our knowledge, no previous studies have been reported so far for using thiazolium ILs for anticancer purposes. These facts have inspired us to design and study the antiproliferative activity of new thiazolium ILs tethering different anions (BF4 (3a–c) and Tf2N (4a–c)) against ovarian carcinoma cell lines (SKOV-3) and normal human skin fibroblast cells (HSF). The 3-(4,5-dimethylthiazol-2-yl)-2,5-diphenyltetrazolium bromide (MTT) assay was used to carry out this study, with cisplatin (CDDP) serving as a positive control. Initially, the impacts of serial concentrations (2.5–100 μM) of the thiazolium ILs on the viability of the SKOV-3 cell lines were assessed as compared to CDDP. […] In general, TILs bound to Tf2N anion (4a–c) inhibited the proliferation of SKOV-3 cells more effectively than the corresponding tetrafluoroborate analogues (3a–c). For instance, [^iPBzTh][Tf2N] (4b) is the most cytotoxic one and can reduce the SKOV-3 cellular viability to a minimum value (10.5 ± 1.7%, Fig. 5A) at its treatment dosage of 100 μM. Conversely, [MBzTh][BF4]
At definite time intervals, the SKOV-3 cell viability has been measured.

[9] = tested on: E.coli; design: method as in doi:10.1039/b921805j, doi:10.1016/j.molliq.2016.05.093; settings: cited from earlier work
[10] = tested on: S.aureus; design: method as in doi:10.1039/b921805j, doi:10.1016/j.molliq.2016.05.093; settings: cited from earlier work

Compound | MIC ± SD [1] [mM] | MBC ± SD [2] [mM] | MIC ± SD [2] [mM] | Zone of inhibition (ZOI) [3] [mm] | MBC ± SD [1] [mM] | IC50 [8] [µM] | Selectivity index (SI) [8] | IC50 [6] [µM] | also measured
Gentamycin [reference compound] | 6.85 ± 0.63 | – | – | – | – | – | – | – | –
Cc1ccc(C[n+]2cscc2C)cc1.F[B-](F)(F)F [3a, 3-(4-Methylbenzyl)-4-methylthiazol-3-ium tetrafluoroborate] | 5.75 ± 0.41 | 3.25 ± 0.21 | 3.25 ± 0.19 | 39.21 | 5.75 ± 0.45 | 78 ± 1.35 | 2.28 | – | T dec (decomposition temperature) [4]: 340.3 °C; viability at 24 h, 200 µM [5]: 45.5 ± 4.1%; IC50 ([6]; Homo sapiens, Skin fibroblast, 24 h): 178 ± 8.79 µM; η (viscosity) [7]: 439.25 ± 5.3 cP; Reduction in SKOV-3 viability ([8]; 100 μM, 24 h): 54.6%
Cc1ccc(C[n+]2cscc2C)cc1.[Cl-] [2a, 3-(4-Methylbenzyl)-4-methylthiazol-3-ium chloride] | 6.75 ± 0.35 | 4.25 ± 0.31 | 4.05 ± 0.29 | – | 12.25 ± 0.36 | – | – | – | MBC ± SD ([2]; listed as [MBzTh][Cl]): 4.25 mM; MIC ± SD ([2]; listed as [MBzTh][Cl]): 4.05 mM; MBC ± SD ([1]; listed as [MBzTh][Cl]): 12.25 mM; MIC ± SD ([1]; listed as [MBzTh][Cl]): 6.75 mM
Cc1csc[n+]1Cc1ccc(C(C)(C)C)cc1.F[B-](F)(F)F [3c, 3-(4-(tert-Butyl)benzyl)-4-methylthiazol-3-ium tetrafluoroborate] | 6.50 ± 0.39 | 3.12 ± 0.14 | 3.12 ± 0.19 | 39.02 | 6.50 ± 0.39 | 51.1 ± 2.33 | 3.76 | 191 ± 9.85 | –
CCCCCCn1cc[n+](C)c1.O=S(=O)([N-]S(=O)(=O)C(F)(F)F)C(F)(F)F [1-hexyl-3-methylimidazolium bis((trifluoromethyl)sulfonyl)amide] | – | – | – | – | – | – | – | – | MBC [9]: 24.59 mM; MIC [9]: 24.59 mM; MBC [10]: 9.13 mM; MIC [10]: 9.13 mM
[NH2][Pt]([NH2])([Cl])[Cl] [CDDP, cisplatin, reference compound] | – | – | – | – | – | 79.5 ± 1.18 | 0.73 | 58.3 ± 6.67 | SKOV-3 cell viability ([8]; IC50 dose, after 72 h): 10.2 ± 2.7%
CN(C)[C@@H]1C(O)=C(C(N)=O)C(=O)[C@@]2(O)C(O)=C3C(=O)c4c(O)cccc4[C@@](C)(O)[C@H]3C[C@@H]12 [Tetracycline, reference compound] | – | – | – | – | – | – | – | – | MIC ([2]; Staphylococcus aureus, ATCC25923, S. aureus): 7.2 ± 0.66 mM (≈ 3200 µg/mL)
Cc1csc[n+]1Cc1ccc(C(C)(C)C)cc1.[Cl-] [2c, 3-(4-(tert-Butyl)benzyl)-4-methylthiazol-3-ium chloride] | 6.25 ± 0.27 | 3.75 ± 0.14 | 3.75 ± 0.19 | – | 6.25 ± 0.29 | – | – | – | –
Cc1csc[n+]1Cc1ccc(C(C)C)cc1.[Cl-] [2b, 3-(4-Isopropylbenzyl)-4-methylthiazol-3-ium chloride] | 5.25 ± 0.31 | 2.35 ± 0.28 | 2.35 ± 0.27 | 32.13 | 5.25 ± 0.29 | – | – | – | –
Cc1csc[n+]1Cc1ccc(C(C)C)cc1.F[B-](F)(F)F [3b, 3-(4-Isopropylbenzyl)-4-methylthiazol-3-ium tetrafluoroborate] | 5.25 ± 0.29 | 2.56 ± 0.15 | 2.56 ± 0.13 | 41.86 | 6.25 ± 0.23 | 35.7 ± 1.03 | 4.26 | 152 ± 9.15 | –

— PMC8978639, “Fine-tuning of the pharmacological potential of novel thiazolium ionic liquids by anion alteration” (RSC Advances, 2021)
